Test results: PubChem BioAssay AID1963432 (Molecular Pharmacology Branch, DTP, NCI, 2024)
Where “and” joins values, the source holds several entries; their conditions need not be identical. Equal values may be shown once.

Tested on: SYO-1 complex spheroid growth, percent test/control
Assay: Anticancer human tumor SYO-1 cell line growth inhibition [Asc];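 note: compound exposure lasted 7 days after spheroids grew 3 days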;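 for viability, T/C: 100% = DMSO vehicle control viability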
Conditions: for viability, T/C: stronger effect = lower value
Outline: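 Tumor cells were grown as multicellular spheroids with stromal HUVEC and mesenchymal stem cells and treated singly or in combination. Concentrations fell in half-log steps from the clinical Cmax, or from 10 microM where none was known.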

In the case of `O=C(c1ccc(F)c(F)c1Nc1ccc(I)cc1F)N1CC(O)([C@@H]2CCCCN2)C1`, the viability, T/C (compound 0.00316 µM) is reported as 105% and 97.6% and 106%, the viability, T/C (compound 0.01 µM) is reported as 104% and 97% and 105% and the viability, T/C (compound 0.0316 µM) is reported as 103% (2×) and 102%. The viability, T/C (compound 0.1 µM) was 108% (2×) and 102%, the viability, T/C (compound 0.316 µM) was 111% and 99.2% and 96.4% and the viability, T/C (compound 1 µM) was 104% and 106% and 101%. For the same compound, the IC50 (curve of compound) was greater than 1 µM.
In the case of `Cc1c(S(C)(=O)=O)c(-c2cc(F)cc(N3CCN(c4ccc(NS(=O)(=O)c5ccc(NC(CCN6CCC(C(=O)OCCCP(=O)(O)O)CC6)CSc6ccccc6)c(S(=O)(=O)C(F)(F)F)c5)cc4)CC3)c2)c(-c2ccc(Cl)cc2)n1C(C)C` (stereo not drawn), the viability, T/C (compound 0.0316 µM) is reported as 102% [middle of 7 runs], the viability, T/C (compound 0.1 µM) is reported as 100% [middle of 7 runs] and the viability, T/C (compound 0.316 µM) is reported as 96.5% [middle of 7 runs]. The viability, T/C (compound 1 µM) was 90.6% [middle of 7 runs], the viability, T/C (compound 3.16 µM) was 88.6% [middle of 7 runs] and the viability, T/C (compound 10 µM) was 79% [middle of 7 runs]. The IC50 (compound alone, run of 11/07/2022) was greater than 10 µM.
`C#Cc1c(F)ccc2cc(O)cc(-c3ncc4c(N5CC6CCC(C5)N6)nc(OCC56CCCN5CC(F)C6)nc4c3F)c12` (stereo not drawn) + CNC(C)C(=O)NC1CN(S(=O)(=O)c2cccc(S(=O)(=O)N3CCC4CCC(C(=O)NC(c5ccccc5)c5ccccc5)N4C(=O)C(NC(=O)C(C)NC)C3)c2)CCC2CCC(C(=O)NC(c3ccccc3)c3ccccc3)N2C1=O was tested, and the IC50 (curve of first compound, second compound 0.00316 µM) was greater than 10 µM, the IC50 (curve of first compound, second compound 0.01 µM) was greater than 10 µM and the IC50 (curve of first compound, second compound 0.0316 µM) was greater than 10 µM. It also gave an IC50 (curve of first compound, second compound 0.1 µM) greater than 10 µM, an IC50 (curve of first compound, second compound 0.316 µM) greater than 10 µM and an IC50 (curve of first compound, second compound 1 µM) greater than 10 µM. For the same compound, the viability, T/C (second compound 0.00316 µM, first compound 0.0316 µM) was 106%, the viability, T/C (second compound 0.00316 µM, first compound 0.1 µM) was 102% and the viability, T/C (second compound 0.00316 µM, first compound 0.316 µM) was 101%. It also gave a viability, T/C (second compound 0.00316 µM, first compound 1 µM) of 103%, a viability, T/C (second compound 0.00316 µM, first compound 3.16 µM) of 110% and a viability, T/C (second compound 0.00316 µM, first compound 10 µM) of 106%. For the same compound, the viability, T/C (second compound 0.01 µM, first compound 0.0316 µM) was 104%, the viability, T/C (second compound 0.01 µM, first compound 0.1 µM) was 93.3% and the viability, T/C (second compound 0.01 µM, first compound 0.316 µM) was 102%. For the same compound, the viability, T/C (second compound 0.01 µM, first compound 1 µM) was 108%, the viability, T/C (second compound 0.01 µM, first compound 3.16 µM) was 112% and the viability, T/C (second compound 0.01 µM, first compound 10 µM) was 105%. The viability, T/C (second compound 0.0316 µM, first compound 0.0316 µM) was 96.8%, the viability, T/C (second compound 0.0316 µM, first compound 0.1 µM) was 106% and the viability, T/C (second compound 0.0316 µM, first compound 0.316 µM) was 101%. It also gave a viability, T/C (second compound 0.0316 µM, first compound 1 µM) of 106%, a viability, T/C (second compound 0.0316 µM, first compound 3.16 µM) of 106% and a viability, T/C (second compound 0.0316 µM, first compound 10 µM) of 106%. It also gave a viability, T/C (second compound 0.1 µM, first compound 0.0316 µM) of 111%, a viability, T/C (second compound 0.1 µM, first compound 0.1 µM) of 97.5% and a viability, T/C (second compound 0.1 µM, first compound 0.316 µM) of 105%. For the same compound, the viability, T/C (second compound 0.1 µM, first compound 1 µM) was 111%, the viability, T/C (second compound 0.1 µM, first compound 3.16 µM) was 120% and the viability, T/C (second compound 0.1 µM, first compound 10 µM) was 99.6%. The viability, T/C (second compound 0.316 µM, first compound 0.0316 µM) was 98.7%, the viability, T/C (second compound 0.316 µM, first compound 0.1 µM) was 99.1% and the viability, T/C (second compound 0.316 µM, first compound 0.316 µM) was 108%. It also gave a viability, T/C (second compound 0.316 µM, first compound 1 µM) of 108%, a viability, T/C (second compound 0.316 µM, first compound 3.16 µM) of 116% and a viability, T/C (second compound 0.316 µM, first compound 10 µM) of 102%. For the same compound, the viability, T/C (second compound 1 µM, first compound 0.0316 µM) was 99.7%, the viability, T/C (second compound 1 µM, first compound 0.1 µM) was 106% and the viability, T/C (second compound 1 µM, first compound 0.316 µM) was 106%. For the same compound, the viability, T/C (second compound 1 µM, first compound 1 µM) was 103%, the viability, T/C (second compound 1 µM, first compound 3.16 µM) was 106% and the viability, T/C (second compound 1 µM, first compound 10 µM) was 105%.
With `CNC(C)C(=O)NC1CN(S(=O)(=O)c2cccc(S(=O)(=O)N3CCC4CCC(C(=O)NC(c5ccccc5)c5ccccc5)N4C(=O)C(NC(=O)C(C)NC)C3)c2)CCC2CCC(C(=O)NC(c3ccccc3)c3ccccc3)N2C1=O` (stereo not drawn) + CCN1C(C(=O)NC23CCC(C(=O)O)(CC2)CC3)C(c2cccc(Cl)c2F)C2(C(=O)Nc3cc(Cl)ccc32)C12CCCCC2 the IC50 (curve of first compound, second compound 0.00949 µM) was greater than 1 µM, the IC50 (curve of first compound, second compound 0.03 µM) was greater than 1 µM and the IC50 (curve of first compound, second compound 0.0949 µM) was greater than 1 µM. The IC50 (curve of first compound, second compound 0.3 µM) was less than 0.00316 µM, the IC50 (curve of first compound, second compound 0.949 µM) was less than 0.00316 µM and the IC50 (curve of first compound, second compound 3 µM) was less than 0.00316 µM. The viability, T/C (second compound 0.00949 µM, first compound 0.00316 µM) was 109%, the viability, T/C (second compound 0.00949 µM, first compound 0.01 µM) was 104% and the viability, T/C (second compound 0.00949 µM, first compound 0.0316 µM) was 104%. The viability, T/C (second compound 0.00949 µM, first compound 0.1 µM) was 112%, the viability, T/C (second compound 0.00949 µM, first compound 0.316 µM) was 113% and the viability, T/C (second compound 0.00949 µM, first compound 1 µM) was 98.7%. It also gave a viability, T/C (second compound 0.03 µM, first compound 0.00316 µM) of 99.2%, a viability, T/C (second compound 0.03 µM, first compound 0.01 µM) of 99.9% and a viability, T/C (second compound 0.03 µM, first compound 0.0316 µM) of 99.2%. It also gave a viability, T/C (second compound 0.03 µM, first compound 0.1 µM) of 105%, a viability, T/C (second compound 0.03 µM, first compound 0.316 µM) of 101% and a viability, T/C (second compound 0.03 µM, first compound 1 µM) of 96.6%. For the same compound, the viability, T/C (second compound 0.0949 µM, first compound 0.00316 µM) was 85.7%, the viability, T/C (second compound 0.0949 µM, first compound 0.01 µM) was 82.6% and the viability, T/C (second compound 0.0949 µM, first compound 0.0316 µM) was 76.7%. The viability, T/C (second compound 0.0949 µM, first compound 0.1 µM) was 75.3%, the viability, T/C (second compound 0.0949 µM, first compound 0.316 µM) was 81.2% and the viability, T/C (second compound 0.0949 µM, first compound 1 µM) was 70.6%. For the same compound, the viability, T/C (second compound 0.3 µM, first compound 0.00316 µM) was 26.2%, the viability, T/C (second compound 0.3 µM, first compound 0.01 µM) was 20% and the viability, T/C (second compound 0.3 µM, first compound 0.0316 µM) was 16.1%. The viability, T/C (second compound 0.3 µM, first compound 0.1 µM) was 15.6%, the viability, T/C (second compound 0.3 µM, first compound 0.316 µM) was 16% and the viability, T/C (second compound 0.3 µM, first compound 1 µM) was 13.4%. For the same compound, the viability, T/C (second compound 0.949 µM, first compound 0.00316 µM) was 4.14%, the viability, T/C (second compound 0.949 µM, first compound 0.01 µM) was 1.95% and the viability, T/C (second compound 0.949 µM, first compound 0.0316 µM) was 1.29%. It also gave a viability, T/C (second compound 0.949 µM, first compound 0.1 µM) of 1.74%, a viability, T/C (second compound 0.949 µM, first compound 0.316 µM) of 0.96% and a viability, T/C (second compound 0.949 µM, first compound 1 µM) of 0.61%. For the same compound, the viability, T/C (second compound 3 µM, first compound 0.00316 µM) was 1.42%, the viability, T/C (second compound 3 µM, first compound 0.01 µM) was 1.29% and the viability, T/C (second compound 3 µM, first compound 0.0316 µM) was 0.76%. The viability, T/C (second compound 3 µM, first compound 0.1 µM) was 1.16%, the viability, T/C (second compound 3 µM, first compound 0.316 µM) was 0.78% and the viability, T/C (second compound 3 µM, first compound 1 µM) was 0.82%.
